Measured values as given in patent publication US20020059032A1, “Rational selection of putative peptides from identified nucleotide or peptide sequences” (priority 1999, published 2002).
pIC50: −log10 of the molar value.

Experiments:
[1] = system: different rat organ membranes; test: Binding test with different rat organ membranes
Procedure: (§1) The membranes are placed in a buffer (50 mM of Tris-HCl, 5 mM of MgCl2 and 0.1 g/l of bacitracin) at the desired protein concentration (iodized CCK bond, 0.1 mg of protein/ml; iodized gastrin bond: 0.5 mg of proteins/ml). They are then incubated in the presence of a labelled ligand in a total volume of 500 μl (about 10 pM for the iodized CCK8, 20 pM for the iodized gastrin13), 50-80 minutes at 25° C., and in the presence or absence of cold agonists. The reaction is stopped with 3 ml of additional BSA buffer (20 g/l) at 4° C., the tubes are centrifuged at 10,000×g, the supernatant is drawn off and the radioactivity associated with the precipitate is evaluated with a γ counter.
(§2) Membrane Preparations of Different Rat Tissues and Organs
(§3) 1) The rats are sacrificed by rupturing their cervical vertebrae, and the different tissues are removed and washed several times in a large volume of NaCl at 9 per thousand.
(§4) The following steps are carried at 4° C.
(§5) 2) The tissues and organs are transferred, still separately, in a sucrose buffer containing:
(§6) They are then cut up carefully with the aid of fine scissors and crushed using an ultraturax apparatus. […]
(§7) 8) The protein content in the membrane suspensions is evaluated using a Bradford dosage device (BioRad, acording to the manufacturer's instructions). […]

[2] = system: Jurkat T cells; test: Binding test with Jurkat T cells; set-up: species or system human
Procedure: Bonding of Radiolabelled Agonists to Jurkat T cells
Culture Conditions of the Cells of the Jurkat T Human Lymphocytic Line
The Jurkat cells are cultured in an RPMI 1640 medium supplemented with foetal calf serum (10% volume/volume) and antibiotics (50 U/ml of penicillin and 50 μg/ml of streptomycin) serum in a humid incubator at 37° C. under an atmosphere of 5% CO2 in air.
The cells are obtained by centrifugation (514 g, 5 minutes), then are washed twice in a standard medium containing: 98 mM of NaCl; 6 mM of KCl; 2.5 mM of NaH2PO4; 1.5 mM of CaCl2, 1 mM of MgCl2, 5 mM of Na-pyruvate; 5 mM of Na-fumarate; 5 mM of Na-glutamate; 2 mM of glutamine; 11.5 mM of glucose; 24.5 mM of Hepes (N-[2-hydroxyethyl]piperazine-N′-[2-ethane sulfonic acid]); 0.5 g/l of bacitracin; 0.1 g/l of soya bean trypsin inhibitor, pH 7.4
Experiments with agonist bonds labelled with iodine 125 (about 50 picomolars) are carried out at 37° C. under agitation for 45-60 minutes in a final volume of 0.5 ml of standard medium containing 2×10^6 cells (4×10^6 cells/ml) and in the presence or absence of competitors. The non-specific bond is evaluated in the presence of a micromolar concentration of cold homologous peptide.

[3] = system: HeLa cells; test: Binding test with HeLa cells
Procedure: Studies of the Bonding of Labelled Agonists on the HeLa Cell Line
The cells are cultured in a DMEM medium supplemented with 10% foetal calf serum, 0.5% of antibiotics (penicillin/streptomycin) and 0.5% of glutamine.
24 to 48 hours before experimentation, the cells are replicated in 24-well plates with approximately 100,000 cells per well and per ml.
The bonding studies are carried out with a BindH buffer
For the experiment, the medium is removed and the cells washed twice with 1 ml of buffer. The reaction medium (500 μl) containing the labelled agonist is added into each well in the presence or absence of the cold homologous agonist and the plates are incubated for one hour at 37° C.
The reaction is stopped by removal of the reaction volume and the wells are rinsed twice with 1 ml of BindH with 20% BSA.
The cells are lysed with 500 μl of 1N soda for 20 minutes at ambient temperature and the radioactivity associated with the lysate is evaluated using a gamma counter.

[4] = molecular target: rat brain membranes; test: Binding test with rat brain membranes
Procedure: as §1, §2, §3, §4, §5, §6, §7

| Substance | Results, binding test with different rat organ membranes (positive/negative) [1] | pIC50 [3] | pIC50 [4] | Results, binding test with Jurkat T cells (positive/negative) [2] |
| --- | --- | --- | --- | --- |
| PLEPSGG [Example 4, H-PLEPSGG-NH2] | negative |  |  |  |
| GQDSIEPVPGQK [Example 1, H-GQDSIEPVPGQK-NH2] | negative |  |  | negative |
| YFKIDNVKKARVQWA [Example 3, H-YFKIDNVKKARVQWA-NH2] |  | 4.30 |  |  |

Second part, led by results:

| Results, binding test with different rat organ membranes (positive/negative) [1] | pIC50 [3] | pIC50 [4] | Substance | Results, binding test with Jurkat T cells (positive/negative) [2] |
| --- | --- | --- | --- | --- |
|  |  | 4.05 | YERNRQAAAANPENSRGK [Example 6, H-YERNRQAAAANPENSRGK-NH2] | negative |
|  |  | 4.05 | ELGRGPGPPLPERGA [Example 5, H-ELGRGPGPPLPERGA-NH2] | negative |
